Source: patent EP0178682A2, “1,3-Bis(1H-1,2,4-triazol-1-yl)-2-fluoro-2-(2,4-difluorophenyl)propane, antifungal composition containing it, and process for preparation of the compound and the composition” (SCHERING CORPORATION, priority 1984, dated 1986)
Converted amounts (≈) assume the structure as drawn. Read-outs that look alike come from different tables or passages of the source.

Key:
Candida albicans = assay: mouse Candida albicans oral infection model; format: in vivo; conditions: compared to ketoconazole
six strains of Candida = assay: in vitro antifungal activity (MIC) in Eagles medium; format: cell-based; conditions: for MIC: six strains of Candida
a large number of fungi = assay: conventional antifungal screening test, in vitro, Sabourand broth medium; format: cell-based

## Fc1ccc(C(F)(Cn2cncn2)Cn2cncn2)c(F)c1 [compound of this invention, 1,3-Bis(1H-1,2,4-triazol-1-yl)-2-(2,4-difluorophenyl)-2-fluoro-propane]
Candida albicans
  preventive dosage required for survival of 100% of the test animals: lower than that required for ketoconazole
Six strains of Candida
  in vitro activity against six strains of Candida compared to ketoconazole: significantly lower in vitro activity
Six strains of Candida; after 48 hours, read-out: mean Minimum Inhibitory Concentration (MIC)
  MIC: 4 µg/mL (≈ 13 µM)
A large number of fungi
  in vitro activity against a large number of fungi: negligible in vitro activity

## CC(=O)N1CCN(c2ccc(OCC3COC(Cn4ccnc4)(c4ccc(Cl)cc4Cl)O3)cc2)CC1 (stereo not drawn) [ketoconazole, reference compound]
Six strains of Candida; read-out: MIC
  MIC: < 0.031 µg/mL
A large number of fungi
  in vitro activity against a large number of fungi: negligible in vitro activity
